From ChEMBL document CHEMBL3612049, “Design, synthesis and molecular docking of salicylic acid derivatives containing metronidazole as a new class of antimicrobial agents” (Bioorg Med Chem, 2015)
Values after ≈ are worked out from the molar mass of the structure shown.

test system: not listed separately; test: Inhibition of Staphylococcus aureus TyrRS expressed in Escherichia coli BL21 using L-[ring-3,5-3H]-tyrosine preincubated for 10 mins by liquid scintillation counting; settings: not given

Row | SMILES | IC50 [µM]
1 | Cc1ncc([N+](=O)[O-])n1CCOC(=O)c1ccccc1OCc1ccccc1Cl | 4.7
2 | Cc1ncc([N+](=O)[O-])n1CCOC(=O)c1ccccc1OCc1ccc(F)c(F)c1 | 6
3 | Cc1ncc([N+](=O)[O-])n1CCOC(=O)c1ccccc1OCc1ccc(C(F)(F)F)cc1 | 6.3
4 | Cc1cc(C)cc(COc2ccccc2C(=O)OCCn2c([N+](=O)[O-])cnc2C)c1 | 3
5 | Cc1ncc([N+](=O)[O-])n1CCOC(=O)c1ccccc1OCc1cccc(C(F)(F)F)c1 | 8.3
6 | Cc1ncc([N+](=O)[O-])n1CCOC(=O)c1ccccc1OCc1cccc(Cl)c1F | 2.9
7 | Cc1ncc([N+](=O)[O-])n1CCOC(=O)c1ccccc1OCc1c(F)cccc1F | 6.9
8 | Cc1ncc([N+](=O)[O-])n1CCOC(=O)c1ccccc1OCc1c(F)c(F)c(F)c(F)c1F | 8
9 | Cc1ncc([N+](=O)[O-])n1CCOC(=O)c1ccccc1OCc1cccc(F)c1 | 6.3
10 | Cc1ncc([N+](=O)[O-])n1CCOC(=O)c1ccccc1OCc1ccccc1 | 5.6
11 | Cc1ncc([N+](=O)[O-])n1CCOC(=O)c1ccccc1OCc1cc(Cl)ccc1Cl | 2.7

test system: not listed separately; test: Cytotoxicity against human macrophages after 24 hrs by MTT assay; format: cell-based, Macrophage; settings: not given

Row | SMILES | CC50 at 24 h [µM]
12 | Cc1ncc([N+](=O)[O-])n1CCOC(=O)c1ccccc1OCc1ccccc1Cl | 213
13 | Cc1ncc([N+](=O)[O-])n1CCOC(=O)c1ccccc1OCc1ccc(F)c(F)c1 | 256
14 | Cc1ncc([N+](=O)[O-])n1CCOC(=O)c1ccccc1OCc1ccc(C(F)(F)F)cc1 | 242
15 | Cc1cc(C)cc(COc2ccccc2C(=O)OCCn2c([N+](=O)[O-])cnc2C)c1 | 252
16 | Cc1ncc([N+](=O)[O-])n1CCOC(=O)c1ccccc1OCc1cccc(C(F)(F)F)c1 | 251
17 | Cc1ncc([N+](=O)[O-])n1CCOC(=O)c1ccccc1OCc1cccc(Cl)c1F | 190
18 | Cc1ncc([N+](=O)[O-])n1CCOC(=O)c1ccccc1OCc1c(F)cccc1F | 277
19 | Cc1ncc([N+](=O)[O-])n1CCOC(=O)c1ccccc1OCc1c(F)c(F)c(F)c(F)c1F | 236
20 | Cc1ncc([N+](=O)[O-])n1CCOC(=O)c1ccccc1OCc1cccc(F)c1 | 124
21 | Cc1ncc([N+](=O)[O-])n1CCOC(=O)c1ccccc1OCc1ccccc1 | 231
22 | Cc1ncc([N+](=O)[O-])n1CCOC(=O)c1ccccc1OCc1cc(Cl)ccc1Cl | 193

test system: Pseudomonas aeruginosa; test: Antimicrobial activity against Pseudomonas aeruginosa ATCC 13525 after 18 hrs by broth microdilution method; format: functional; settings: ATCC 13525, 18 h

Row | SMILES | MIC [µg/mL]
23 | Cc1ncc([N+](=O)[O-])n1CCOC(=O)c1ccccc1OCc1ccccc1Cl | 12.5 (≈ 30.1 µM)
24 | Cc1ncc([N+](=O)[O-])n1CCOC(=O)c1ccccc1OCc1ccc(F)c(F)c1 | 100 (≈ 240 µM)
25 | CC1(C)S[C@@H]2[C@H](NC(=O)Cc3ccccc3)C(=O)N2[C@H]1C(=O)O [PENICILLIN G] | 6.25 (≈ 18.7 µM)
26 | Cc1ncc([N+](=O)[O-])n1CCOC(=O)c1ccccc1OCc1ccc(C(F)(F)F)cc1 | 50 (≈ 111 µM)
27 | Cc1cc(C)cc(COc2ccccc2C(=O)OCCn2c([N+](=O)[O-])cnc2C)c1 | 12.5 (≈ 30.5 µM)
28 | Cc1ncc([N+](=O)[O-])n1CCOC(=O)c1ccccc1OCc1cccc(C(F)(F)F)c1 | 100 (≈ 223 µM)
29 | Cc1ncc([N+](=O)[O-])n1CCOC(=O)c1ccccc1OCc1cccc(Cl)c1F | 6.25 (≈ 14.4 µM)
30 | Cc1ncc([N+](=O)[O-])n1CCOC(=O)c1ccccc1OCc1c(F)cccc1F | 50 (≈ 120 µM)
31 | Cc1ncc([N+](=O)[O-])n1CCOC(=O)c1ccccc1OCc1c(F)c(F)c(F)c(F)c1F | 100 (≈ 212 µM)
32 | Cc1ncc([N+](=O)[O-])n1CCOC(=O)c1ccccc1OCc1cccc(F)c1 | 50 (≈ 125 µM)
33 | O=C(N[C@H](CO)[C@H](O)c1ccc([N+](=O)[O-])cc1)C(Cl)Cl [CHLORAMPHENICOL] | 0.78 (≈ 2.41 µM)
34 | Cc1ncc([N+](=O)[O-])n1CCOC(=O)c1ccccc1OCc1ccccc1 | 50 (≈ 131 µM)
35 | Cc1ncc([N+](=O)[O-])n1CCOC(=O)c1ccccc1OCc1cc(Cl)ccc1Cl | 6.25 (≈ 13.9 µM)

test system: Escherichia coli; test: Antimicrobial activity against Escherichia coli ATCC 35218 after 18 hrs by broth microdilution method; format: functional; settings: ATCC 35218, 18 h

Row | SMILES | MIC [µg/mL]
36 | Cc1ncc([N+](=O)[O-])n1CCOC(=O)c1ccccc1OCc1ccccc1Cl | 6.25 (≈ 15 µM)
37 | Cc1ncc([N+](=O)[O-])n1CCOC(=O)c1ccccc1OCc1ccc(F)c(F)c1 | 100 (≈ 240 µM)
38 | CC1(C)S[C@@H]2[C@H](NC(=O)Cc3ccccc3)C(=O)N2[C@H]1C(=O)O [PENICILLIN G] | 6.25 (≈ 18.7 µM)
39 | Cc1ncc([N+](=O)[O-])n1CCOC(=O)c1ccccc1OCc1ccc(C(F)(F)F)cc1 | 50 (≈ 111 µM)
40 | Cc1cc(C)cc(COc2ccccc2C(=O)OCCn2c([N+](=O)[O-])cnc2C)c1 | 6.25 (≈ 15.3 µM)
41 | Cc1ncc([N+](=O)[O-])n1CCOC(=O)c1ccccc1OCc1cccc(C(F)(F)F)c1 | 100 (≈ 223 µM)
42 | Cc1ncc([N+](=O)[O-])n1CCOC(=O)c1ccccc1OCc1cccc(Cl)c1F | 12.5 (≈ 28.8 µM)
43 | Cc1ncc([N+](=O)[O-])n1CCOC(=O)c1ccccc1OCc1c(F)cccc1F | 50 (≈ 120 µM)
44 | Cc1ncc([N+](=O)[O-])n1CCOC(=O)c1ccccc1OCc1c(F)c(F)c(F)c(F)c1F | 100 (≈ 212 µM)
45 | Cc1ncc([N+](=O)[O-])n1CCOC(=O)c1ccccc1OCc1cccc(F)c1 | 50 (≈ 125 µM)
46 | O=C(N[C@H](CO)[C@H](O)c1ccc([N+](=O)[O-])cc1)C(Cl)Cl [CHLORAMPHENICOL] | 6.25 (≈ 19.3 µM)
47 | Cc1ncc([N+](=O)[O-])n1CCOC(=O)c1ccccc1OCc1ccccc1 | 25 (≈ 65.6 µM)
48 | Cc1ncc([N+](=O)[O-])n1CCOC(=O)c1ccccc1OCc1cc(Cl)ccc1Cl | 3.13 (≈ 6.95 µM)

test system: Staphylococcus aureus; test: Antimicrobial activity against Staphylococcus aureus ATCC 6538 after 18 hrs by broth microdilution method; format: functional; settings: ATCC 6538, 18 h

Row | SMILES | MIC [µg/mL]
49 | Cc1ncc([N+](=O)[O-])n1CCOC(=O)c1ccccc1OCc1ccccc1Cl | 6.25 (≈ 15 µM)
50 | Cc1ncc([N+](=O)[O-])n1CCOC(=O)c1ccccc1OCc1ccc(F)c(F)c1 | 25 (≈ 59.9 µM)
51 | CC1(C)S[C@@H]2[C@H](NC(=O)Cc3ccccc3)C(=O)N2[C@H]1C(=O)O [PENICILLIN G] | 0.78 (≈ 2.33 µM)
52 | Cc1ncc([N+](=O)[O-])n1CCOC(=O)c1ccccc1OCc1ccc(C(F)(F)F)cc1 | 25 (≈ 55.6 µM)
53 | Cc1cc(C)cc(COc2ccccc2C(=O)OCCn2c([N+](=O)[O-])cnc2C)c1 | 3.13 (≈ 7.64 µM)
54 | Cc1ncc([N+](=O)[O-])n1CCOC(=O)c1ccccc1OCc1cccc(C(F)(F)F)c1 | 50 (≈ 111 µM)
55 | Cc1ncc([N+](=O)[O-])n1CCOC(=O)c1ccccc1OCc1cccc(Cl)c1F | 3.13 (≈ 7.21 µM)
56 | Cc1ncc([N+](=O)[O-])n1CCOC(=O)c1ccccc1OCc1c(F)cccc1F | 25 (≈ 59.9 µM)
57 | Cc1ncc([N+](=O)[O-])n1CCOC(=O)c1ccccc1OCc1c(F)c(F)c(F)c(F)c1F | 50 (≈ 106 µM)
58 | Cc1ncc([N+](=O)[O-])n1CCOC(=O)c1ccccc1OCc1cccc(F)c1 | 12.5 (≈ 31.3 µM)
59 | O=C(N[C@H](CO)[C@H](O)c1ccc([N+](=O)[O-])cc1)C(Cl)Cl [CHLORAMPHENICOL] | 1.57 (≈ 4.86 µM)
60 | Cc1ncc([N+](=O)[O-])n1CCOC(=O)c1ccccc1OCc1ccccc1 | 12.5 (≈ 32.8 µM)
61 | Cc1ncc([N+](=O)[O-])n1CCOC(=O)c1ccccc1OCc1cc(Cl)ccc1Cl | 1.57 (≈ 3.49 µM)

test system: not listed separately; test: Hemolytic activity in human erythrocytes assessed as hemoglobin release after 3 hrs by spectrophotometric analysis; format: ADME, cell-based, Erythrocyte; settings: read-out: LC50

Row | SMILES | HC50 at 3 h [µM]
62 | Cc1ncc([N+](=O)[O-])n1CCOC(=O)c1ccccc1OCc1ccccc1Cl | > 10
63 | Cc1ncc([N+](=O)[O-])n1CCOC(=O)c1ccccc1OCc1ccc(F)c(F)c1 | > 10
64 | Cc1ncc([N+](=O)[O-])n1CCOC(=O)c1ccccc1OCc1ccc(C(F)(F)F)cc1 | > 10
65 | Cc1cc(C)cc(COc2ccccc2C(=O)OCCn2c([N+](=O)[O-])cnc2C)c1 | > 10
66 | Cc1ncc([N+](=O)[O-])n1CCOC(=O)c1ccccc1OCc1cccc(C(F)(F)F)c1 | > 10
67 | Cc1ncc([N+](=O)[O-])n1CCOC(=O)c1ccccc1OCc1cccc(Cl)c1F | > 10
68 | Cc1ncc([N+](=O)[O-])n1CCOC(=O)c1ccccc1OCc1c(F)cccc1F | > 10
69 | Cc1ncc([N+](=O)[O-])n1CCOC(=O)c1ccccc1OCc1c(F)c(F)c(F)c(F)c1F | > 10
70 | Cc1ncc([N+](=O)[O-])n1CCOC(=O)c1ccccc1OCc1cccc(F)c1 | > 10
71 | Cc1ncc([N+](=O)[O-])n1CCOC(=O)c1ccccc1OCc1ccccc1 | > 10
72 | Cc1ncc([N+](=O)[O-])n1CCOC(=O)c1ccccc1OCc1cc(Cl)ccc1Cl | > 10

test system: Bacillus spizizenii; test: Antimicrobial activity against Bacillus subtilis ATCC 6633 after 18 hrs by broth microdilution method; format: functional; settings: ATCC 6633, 18 h

Row | SMILES | MIC [µg/mL]
73 | Cc1ncc([N+](=O)[O-])n1CCOC(=O)c1ccccc1OCc1ccccc1Cl | 6.25 (≈ 15 µM)
74 | Cc1ncc([N+](=O)[O-])n1CCOC(=O)c1ccccc1OCc1ccc(F)c(F)c1 | 50 (≈ 120 µM)
75 | CC1(C)S[C@@H]2[C@H](NC(=O)Cc3ccccc3)C(=O)N2[C@H]1C(=O)O [PENICILLIN G] | 0.78 (≈ 2.33 µM)
76 | Cc1ncc([N+](=O)[O-])n1CCOC(=O)c1ccccc1OCc1ccc(C(F)(F)F)cc1 | 25 (≈ 55.6 µM)
77 | Cc1cc(C)cc(COc2ccccc2C(=O)OCCn2c([N+](=O)[O-])cnc2C)c1 | 1.57 (≈ 3.83 µM)
78 | Cc1ncc([N+](=O)[O-])n1CCOC(=O)c1ccccc1OCc1cccc(C(F)(F)F)c1 | 100 (≈ 223 µM)
79 | Cc1ncc([N+](=O)[O-])n1CCOC(=O)c1ccccc1OCc1cccc(Cl)c1F | 1.57 (≈ 3.62 µM)
80 | Cc1ncc([N+](=O)[O-])n1CCOC(=O)c1ccccc1OCc1c(F)cccc1F | 25 (≈ 59.9 µM)
81 | Cc1ncc([N+](=O)[O-])n1CCOC(=O)c1ccccc1OCc1c(F)c(F)c(F)c(F)c1F | 50 (≈ 106 µM)
82 | Cc1ncc([N+](=O)[O-])n1CCOC(=O)c1ccccc1OCc1cccc(F)c1 | 25 (≈ 62.6 µM)
83 | O=C(N[C@H](CO)[C@H](O)c1ccc([N+](=O)[O-])cc1)C(Cl)Cl [CHLORAMPHENICOL] | 1.57 (≈ 4.86 µM)
84 | Cc1ncc([N+](=O)[O-])n1CCOC(=O)c1ccccc1OCc1ccccc1 | 12.5 (≈ 32.8 µM)
85 | Cc1ncc([N+](=O)[O-])n1CCOC(=O)c1ccccc1OCc1cc(Cl)ccc1Cl | 0.78 (≈ 1.73 µM)
